Consider 1 compound from patent US7671054B1, “Reverse-turn mimetics and method relating thereto” (Choongwae Pharma Corporation, priority 2001, dated 2010).

pIC50: −log10 of the molar value.

The subject of test [1] is TNF-α production in THP-1 cells. Put plainly: LPS-induced TNF-α production in THP-1 cells. Format: cell-based. To be noted: Homo sapiens, LPS 100 ng/ml, 6 hr. Here is the method: LPS-induced TNF-α production in THP-1 cells: THP-1 cells were incubated with 200 nM PMA for 24 hr. Cells were harvested with trypsin and seeded into 96 well tissue culture plates (2×10^4 cells/well). The test compound, Compound F, was added to each well followed by LPS (100 ng/ml). The cells were further incubated for 6 hr at 37° C. in a CO2 incubator. Media was collected and concentration of TNF-α was determined with the ELISA kit (OptEIA, BD).

Test [2] concerns IL-2 production in Jurkat cells. Briefly: PMA/ionomycin-induced IL-2 production in Jurkat cells. To be noted: Homo sapiens, 6 hr. In kind it is cell-based. Here is the method:
PMA/lonomycin-induced IL-2 production in Jurkat cells: Jurkat cells were seeded into 96 well tissue culture plates (1×10^5 cells/well) and treated with the test compound, Compound F, and further incubated for 60 min at 37° C. in a CO2 incubator. Stimulant (10 ng/ml PMA and 1 μg/ml ionomycin) was added into each well, and the cells were further incubated for 6 hr at 37° C. in a CO2 incubator. Supernatant was collected and concentration of IL-2 was determined with the ELISA kit (OptEIA, BD).

For test [3], the system named is NF-κB in stably transfected A549 cells. Briefly: NF-κB reporter assay. In kind it is cell-based. To be noted: PMA 10 ng/ml, 6 hr. Here is the method: Cells were transferred into each well of 96 well white opaque plates (1×10^4 cells/well/50 μl) and incubated 24 hr at 37° C. in 5% CO2 incubator. The test compound, Compound F, was added to each well, and 1 hr later, phorbol 12-myristate 13-acetate (PMA) (10 ng/ml) was added into each well. Plates were incubated further for 6 hr at 37° C. in 5% CO2 incubator. One hundred microliter of Dual-glo FireFly substrate (Promega) was added and incubated for 10 min. Luminescence of each well was measured with a luminometer (Victor II) (FIG. 23).
(In general: Reporter assays use an easily measured gene product as a stand-in for the process of interest.)

For test [4], the system named is S.D. rats with Mycobacterium butyricum-induced polyarthritis. Put plainly: Rat adjuvant-induced arthritis model. In kind it is in vivo. Here is the method:
To induce polyarthritis, six-week-old male S.D. rats received intradermal injection (base of tail) of 100 μl of Mycobacterium butyricum (Cat. No. 264010, Difco) in mineral oil (5 mg/ml) on Day 0. The test compound, Compound F, was given once daily at Day 1, 2, 3, 4, 5, 8, 10, 12 and 14 by oral gavage. […] The paw thickness was measured with digital caliper (Mitutoyo, Japan) and the arthritic index was accessed (FIG. 21).

In test [5] the test system is TNF-α in serum of ICR mice. Put plainly: Serum TNF-α induced by intraperitoneal LPS. Format: in vivo, mouse. The conditions noted are these: perorally 60 min prior to LPS, blood 90 min after. Here is the method: Male young ICR mice received intraperitoneal injection of LPS (E. coli O111:B4). Compound F was administered perorally 60 min prior to LPS challenge and blood was drawn 90 min subsequent to challenge. Vehicle control mice received the pharmacological carrier used for Compound F only. Concentration of TNF-α in the serum was determined by ELISA method. […] For reference, dexamethasone (Dex, Sigma) was treated (15 mg/kg, oral).

Take `CC(C)C[C@H]1C(=O)N(CCC(c2ccccc2)c2ccccc2)C[C@H]2N1C(=O)CN(C)N2C(=O)NCc1ccccc1` [Compound F]: the results for the pIC50 in test [1] and in test [2] were 5.15 and 5.07, respectively. Further, the NF-κB reporter activity result in test [3] is given as “effective in inhibiting NF-κB transcription”. The “increase of paw thickness” value in test [4] (oral 30 mg/kg) and in test [4] (oral 100 mg/kg) was “significantly ameliorated the increase of paw thickness” throughout. For the same compound, the “LPS-induced TNF-α in serum” value in test [5] is “reduces LPS-induced TNF-α production in serum in a dose-dependent manner”.
